Assay results taken from the METLIN SMRT retention time set (Domingo-Almenara et al. 2019).

Experiment: gradient 5% acetonitrile 3 min, to 50% in 2 min, to 85% in 15 min, held 3 min, 100 µL/min
Settings: column: Zorbax Extend-C18 2.1 x 50 mm; eluents: water / acetonitrile, 0.1% formic acid
Method in brief: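 The mobile phases were water and acetonitrile, each with 0.1% formic acid, pumped at 100 μL/min through a Zorbax Extend-C18 column (2.1 × 50 mm, 1.8 μm). Pure standards were injected as mixtures of ~100 molecules and detected by a quadrupole time-of-flight mass spectrometer in positive and negative ionization mode. Retention time came from computationally picked adduct peaks, each inspected by hand.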

SMILES	RP-LC retention time
COc1cccc(Nc2c(-c3ccc(Br)cc3)nc3cnccn23)c1	972 s
CCN1CCC(n2cc(CNc3cc(Cl)c4ncc(C#N)c(Nc5ccc(F)c(Cl)c5)c4c3)nn2)CC1	727 s
Cc1ccccc1CNC(=O)C1CCN(S(C)(=O)=O)c2cc(Cl)ccc2O1 (centres undefined)	975 s
CCn1cc(S(=O)(=O)Nc2ccc(C)cc2)c2cccnc21	838 s
O=C(Nc1c(-c2ccc(F)cc2)nc2ccccn12)c1ccc(F)cc1	671 s
Cc1nn(-c2ccc(-c3noc(C4CC4)n3)cc2)cc1C(=O)Nc1ccc(F)cc1F	773 s
COCCC(=O)NC1CCN(c2ccc(C)c(C)c2)C1=O (centres undefined)	688 s
CC(=O)OC[C@@]1(O)C[C@@]23CC[C@@H]4c5ccoc5C=C[C@@]4(C)[C@@H]2CC[C@@H]1C3	715 s
COc1cccc(-c2csc(Nc3ccc(Br)cn3)n2)c1	1170 s
COc1ccc(-c2ccc(=O)n(Cc3nc(-c4cccc(Br)c4)no3)n2)cc1	997 s
Cc1ccc(-c2nc3nc(C)cc(N(CCO)Cc4ccccc4)n3n2)cc1	815 s
CCCn1c2ccccc2c2cnn(CC(=O)NCCN3CC(C)CC(C)C3)c(=O)c21 (centres undefined)	701 s
CC(C)CNC(=O)c1ccc(CN2CCN(Cc3ccc(F)cc3)C(=O)C2=O)cc1	732 s
CCCCn1cc(S(=O)(=O)Nc2ccc(F)c(C)c2)c2cccnc21	995 s
CCN1C=C(C(=O)OCc2cc(F)cc(F)c2)C(C)=NS1(=O)=O	926 s
COc1ccc(-c2nc(-c3ccc(-n4ccnc4)nc3)no2)c(OC)c1	698 s
CN1C(=O)C(C)(C(=O)NCc2ccccc2Cl)Oc2cccnc21 (centres undefined)	795 s
Cc1cccc(-c2noc(Cn3c(=O)n(C(C)C)c(=O)c4ccccc43)n2)c1	1170 s
C=CCn1c(SCC#CCO)nc2ccccc2c1=O	744 s
Cc1ccc(CNC(=O)Cn2c3ccccc3c3cnn(C)c(=O)c32)o1	925 s
COc1ccc(OC)c(S(=O)(=O)NCCc2ncc(C)n2C(C)C)c1	540 s

SMILES	RP-LC retention time
COc1cc(C(=O)N2CCC3(CC2)NC(=O)c2ccc(Cl)cc2N3)cc(OC)c1OC	721 s
COc1cc(OC)c(NC(=O)N(C)CCc2noc(-c3ccccc3)n2)cc1Cl	946 s
O=C1c2ccccc2C(=O)C1c1ccccn1	749 s
CCc1ccccc1NC(=O)Cn1c(N)nc(COC)cc1=O	598 s
CCOC(=O)c1c(C)[nH]c(C(=O)N2CCC(C(C)C(=O)NCc3ccc(OC(C)C)cc3)CC2)c1C (centres undefined)	892 s
COc1ccc(CNc2nc3ccncc3n(C(C)C)c2=O)cc1OC	550 s
O=C(Cn1cnc2ccccc2c1=O)NC1CC1	596 s
CN(C)CCn1nnc2cc(-c3noc(-c4ccc(Br)cc4)n3)ccc21	727 s
COc1ccc(/C=C/c2ccccc2F)cc1	1170 s
Cc1ccc(CNC(=O)C2(C)CCN(S(=O)(=O)c3ccc(C)cc3C)CC2)cc1	1040 s
O=C(NC1CC1)c1cc(-c2ccc(F)cc2)n[nH]1	705 s
O=C(Nc1ccc(Oc2ccc(NC(=O)Nc3ccccc3Cl)cc2)cc1)Nc1ccccc1Cl	1250 s
Cc1ccc(-c2ccnc(SCC(=O)Nc3ccccc3C(F)(F)F)n2)cc1C	1120 s
COc1ccc(C2Cn3nnc(-c4nc(-c5cccc(Br)c5)no4)c3CO2)cc1 (centres undefined)	1170 s
CCc1ccc(NC(=O)NC2CCN(c3ccc(F)c(C)c3)C2=O)cc1 (centres undefined)	905 s
N#Cc1ccsc1NC(=O)NC(c1ccccc1)c1ccccc1	947 s
COC(=O)C1=CN(c2ccccc2OC)c2cc(F)ccc2S1(=O)=O	860 s
CCn1nccc1-c1cccc(-c2noc(-c3cnccn3)n2)c1	883 s
O=c1cc(-c2ccccc2)oc2cc(O)c(O)cc12	750 s
COc1c2c(c(OC)c3c1c(=O)c1ccccc1n3C)OCO2	767 s
O=C(CN1C(=O)CCCc2ccccc21)NCc1ccc(F)c(Cl)c1	859 s

Other lines, results leading:

RP-LC retention time	SMILES
925 s	CC(C)CNC(=O)N1c2ccccc2CC1c1nc(C2CC2)no1 (centres undefined)
729 s	Cc1ccccc1Nc1c(-c2ccc(N3CCOCC3)cc2)nc2c(C)cccn12
747 s	O=C(c1cccn1-c1nnc(N2CCOCC2)s1)N1CCCCCC1
826 s	CCOC(=O)c1c(S(=O)(=O)N2CCC(C(=O)NCCc3ccccc3)CC2)c(C)n(C)c1C
885 s	Cc1cc(C)n(-c2ccc(C(=O)NC3CCCC3)cn2)n1
648 s	O=C(Nc1ccc(OCC(=O)N2CCN(c3ccccc3F)CC2)nc1)C1CC1
789 s	O=C(NCC1CCCO1)C1CCN(S(=O)(=O)c2ccc(-c3noc(C4CC4)n3)cc2)CC1 (centres undefined)
804 s	O=C(NCc1ccc2c(c1)OCO2)C(=O)c1cn(CC(=O)N2CCOCC2)c2ccccc12
627 s	O=C(COc1ccc(F)cc1)N1CC(n2cnnc2C2CC2)C1
602 s	Cc1cc(-n2nnc(C(=O)N3CCC(N4CCCCC4)CC3)c2-c2ccncc2)ccc1F
806 s	CCC(C(=O)c1ccccc1)n1c(N2CCOCC2)nc2c1c(=O)n(C)c(=O)n2C (centres undefined)
780 s	Cc1ccc(-c2cc(C(=O)N3CCOCC3)nn2C2CCS(=O)(=O)C2)cc1C (centres undefined)
916 s	CCC(=O)N1c2ccc(S(=O)(=O)N3CCCCC3)cc2CC1C(=O)NCc1ccccc1C (centres undefined)
742 s	COc1ccc(CNC(=O)C2CCN(c3ccc(SCc4ccccc4)nn3)CC2)cc1
660 s	CC(C(=O)N1CCN(c2ccccn2)CC1)n1ccc2cc(S(=O)(=O)N3CCCC3)ccc21 (centres undefined)
675 s	O=C(COc1ccc(Cl)cc1)N1CC(n2cnnc2C2CC2)C1
804 s	CCN1c2ccccc2C(=O)NC12CCN(C(=O)c1ccc(C)cc1)CC2
496 s	Cc1ncsc1CN1CCCC(c2nncn2-c2ccccc2)C1 (centres undefined)
566 s	CCn1cc(CCN2CCC(C(=O)N3CCOCC3)CC2)c2cccnc21
941 s	Cc1nn(-c2cc(N3CCCCC3)ncn2)c(C)c1CCC(=O)NC(C)CCc1ccco1 (centres undefined)
598 s	COc1ccc(Nc2c(C(=O)N3CCCCC3C)cnc3nc(C)ccc23)cc1OC (centres undefined)
614 s	Fc1cccc(-c2noc(-c3ccc(NCCCN4CCC(N5CCCCC5)CC4)nc3)n2)c1
586 s	Cc1ccc(CN2CCN(CC(=O)N3CCN(c4ccccn4)CC3)C(=O)C2=O)cc1
827 s	Cc1nn(CC(=O)NC(C)c2ccc3c(c2)OCCO3)c(=O)c2c(C)n(-c3ccccc3)nc12 (centres undefined)

RP-LC retention time	SMILES
651 s	CCc1cc(N2CCN(C(=O)COc3ccc(Cl)cc3)CC2)nc2nncn12
796 s	O=C(C1=CN(c2ccc3c(c2)OCO3)c2cc(F)ccc2S1(=O)=O)N1CCCC1
703 s	CC1CCN(C(=O)c2ccc3c(c2)N(CC(=O)N2CCCC2)C(=O)CO3)CC1
753 s	COc1ccc(N2CCN(C(=O)Cn3ccc4ccc(-c5nnc(C)o5)cc43)CC2)cc1
661 s	c1ccc(-c2nc(C3CCOCC3)no2)c(OC2CCN(C3CCCC3)C2)c1 (centres undefined)
560 s	CN(C)c1ccc(C(CNC(=O)c2ccccc2[N+](=O)[O-])N2CCOCC2)cc1 (centres undefined)
601 s	Cn1cccc1C(CNC(=O)Nc1ccc(Cl)c(Cl)c1)N1CCOCC1 (centres undefined)
580 s	Cc1ccc(C)c(NC(=O)N2CCc3nc[nH]c3C2)c1
1150 s	Cc1nc(N2CCN(C(c3ccccc3)c3ccccc3)CC2)nc2c1C(=O)CC(c1cccs1)C2 (centres undefined)
746 s	O=C(NCc1ccc(F)cc1)C1CCCN(c2ncnc3c2oc2ccccc23)C1 (centres undefined)
756 s	CC(C)NC(=O)c1ccc(OCC2CCN(C(=O)C(C)C)CC2)cc1
548 s	CCNc1cc(N2CCC(CCC(=O)N3CCC(C)CC3)CC2)ncn1
863 s	CCOC(=O)N1CCN(c2ncnc3c2cnn3-c2cc(Cl)ccc2C)CC1
643 s	O=C(NC1CCN(c2cc(-c3cccnc3)[nH]n2)CC1)c1ccc(F)c(Cl)c1
609 s	COCCNC(=O)C(=O)NCC1CCN(C(=O)c2ccccc2F)CC1
784 s	C[C@H]1CN(C(=O)NC2CCCCC2)C[C@@H]1c1nc(-c2cccnc2)no1
614 s	CC(C)CN1CCN(C(=O)C2CCCN(c3nnc4ccc(C(F)(F)F)cn34)C2)CC1 (centres undefined)
651 s	COCCNC(=O)C1CCc2sc(C(=O)N3CCCCC3)cc2C1 (centres undefined)
587 s	CCc1cc(=O)n(CC(=O)Nc2ccc(N(C)C)cc2)c(N2CCOCC2)n1
1080 s	Cc1ccc(Sc2nccnc2N2CCCC(C(=O)NCc3ccc(C)o3)C2)cc1 (centres undefined)
892 s	CC(C)c1ccc(CNC(=O)C2CCN(C(=O)c3ncn4c3COC(c3ccccc3)C4)CC2)cc1 (centres undefined)
649 s	CCc1ccc(NC(=O)N2CCN(c3cnn4c(C)nnc4c3)CC2)cc1
741 s	Cc1ccc(NC(=O)C2CCCN(C(=O)C3Sc4ccccc4NC3=O)C2)cc1 (centres undefined)
